Laboratory results as given in ChEMBL document CHEMBL1201862, “PubChem BioAssay data set” (2004).
Values belong to the compound of their own block, whether it stands above or below them. Active and inactive are the calls of the source.

Key:
Genome polyprotein = Genome polyprotein (dengue virus type 2, UniProt P29990); assay: flavivirus cap methylation enzyme inhibition – biochemical, confirmation dose response, primary screen (AID 588689); assay type: functional
[1] = target: Beta-2 adrenergic receptor (Homo sapiens, UniProt P07550); assay: ADRB2 activation measured by internalization – cell-based, FAP fluorogen, flow cytometry, cherry pick 1, dose response (AID 588763); assay type: functional
[2] = target: Glucose-6-phosphate 1-dehydrogenase (Homo sapiens, UniProt P11413); assay: inhibition of Homo sapiens G6PD, dose series – biochemical, fluorescence, selectivity assay for P. falciparum G6PD inhibitor project, dose response (AID 504792); assay type: functional
Chain of Glucose-6-phosphate 1-dehydrogenase (P11413 whole entry): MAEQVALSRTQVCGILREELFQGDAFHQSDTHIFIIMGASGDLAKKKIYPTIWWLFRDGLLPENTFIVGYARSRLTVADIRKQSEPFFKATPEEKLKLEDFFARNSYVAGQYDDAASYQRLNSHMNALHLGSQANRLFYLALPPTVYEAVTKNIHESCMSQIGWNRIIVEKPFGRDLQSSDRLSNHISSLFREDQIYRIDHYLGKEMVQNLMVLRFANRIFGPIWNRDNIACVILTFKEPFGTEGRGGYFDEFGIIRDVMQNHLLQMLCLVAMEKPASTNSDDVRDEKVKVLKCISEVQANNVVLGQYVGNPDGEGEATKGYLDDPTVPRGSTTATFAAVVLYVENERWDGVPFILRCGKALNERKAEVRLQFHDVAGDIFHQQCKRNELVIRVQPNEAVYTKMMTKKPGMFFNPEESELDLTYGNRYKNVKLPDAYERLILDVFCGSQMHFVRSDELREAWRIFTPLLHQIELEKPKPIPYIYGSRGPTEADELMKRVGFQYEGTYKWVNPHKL

Paired box protein Pax-8 = Paired box protein Pax-8 (Homo sapiens, UniProt Q06710); assay: PAX8 transcriptional activity inhibition in RMG-I – RMG-I cells, luciferase, cherry-pick, dose response (AID 687027); assay type: functional, cell-based;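 also: luciferase reporter driven by Pax8 target thyroperoxidase promoter measured by SteadyGlo luminescence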
[3] = target: T1, DNA repair and recombination protein RAD54-like (Homo sapiens, UniProt Q92698); assay: RAD54 Holliday junction migration blockers – biochemical, fluorescence, cherry-picked samples, dose series, confirmation (AID 651657); assay type: functional
T1 sequence (Q92698 whole entry): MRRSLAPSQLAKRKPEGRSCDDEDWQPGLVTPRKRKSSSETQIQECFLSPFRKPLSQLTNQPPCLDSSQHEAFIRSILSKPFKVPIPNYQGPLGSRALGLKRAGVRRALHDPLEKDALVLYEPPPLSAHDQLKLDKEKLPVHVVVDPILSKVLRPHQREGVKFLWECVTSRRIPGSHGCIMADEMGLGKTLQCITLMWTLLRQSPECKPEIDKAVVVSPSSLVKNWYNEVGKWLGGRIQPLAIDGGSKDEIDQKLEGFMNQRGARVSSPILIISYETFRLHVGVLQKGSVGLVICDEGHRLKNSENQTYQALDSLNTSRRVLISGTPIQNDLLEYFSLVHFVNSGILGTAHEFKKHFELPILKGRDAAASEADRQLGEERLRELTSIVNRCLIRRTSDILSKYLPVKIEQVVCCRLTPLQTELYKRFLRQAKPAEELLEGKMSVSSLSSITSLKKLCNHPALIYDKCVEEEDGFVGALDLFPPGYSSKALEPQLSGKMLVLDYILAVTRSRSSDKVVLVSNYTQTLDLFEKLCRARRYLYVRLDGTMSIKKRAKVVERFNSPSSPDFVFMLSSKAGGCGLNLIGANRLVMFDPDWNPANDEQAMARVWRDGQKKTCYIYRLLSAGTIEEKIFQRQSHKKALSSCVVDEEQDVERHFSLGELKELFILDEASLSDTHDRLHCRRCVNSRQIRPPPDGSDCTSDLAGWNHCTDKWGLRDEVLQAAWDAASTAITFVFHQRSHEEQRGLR

Cytochrome P450 2C19 = Cytochrome P450 2C19 (Homo sapiens, UniProt P33261); assay: Cytochrome panel assay with activity outcomes. Panel member name: p450-cyp2c19 Compounds with AC50 equal or less than 10 uM are considered active; assay type: functional
Cytochrome P450 2D6 = Cytochrome P450 2D6 (Homo sapiens, UniProt P10635);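 also: CYP2D6 member of a cytochrome P450 panel assay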
Chain of Cytochrome P450 2D6 (P10635 whole entry): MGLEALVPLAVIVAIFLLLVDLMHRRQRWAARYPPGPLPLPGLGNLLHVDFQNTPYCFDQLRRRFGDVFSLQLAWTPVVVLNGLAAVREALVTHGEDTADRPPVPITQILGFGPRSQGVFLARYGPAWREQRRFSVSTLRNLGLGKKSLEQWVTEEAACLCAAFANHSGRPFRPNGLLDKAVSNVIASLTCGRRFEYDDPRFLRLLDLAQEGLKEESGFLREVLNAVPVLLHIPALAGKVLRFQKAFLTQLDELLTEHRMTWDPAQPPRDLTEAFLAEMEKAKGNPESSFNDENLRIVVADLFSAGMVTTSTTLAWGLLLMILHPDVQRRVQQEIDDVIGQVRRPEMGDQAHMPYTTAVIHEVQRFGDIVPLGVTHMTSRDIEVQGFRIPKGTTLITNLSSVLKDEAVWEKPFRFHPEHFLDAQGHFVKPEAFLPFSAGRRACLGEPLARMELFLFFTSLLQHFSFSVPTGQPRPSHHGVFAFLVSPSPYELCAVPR

Cytochrome P450 3A4 = Cytochrome P450 3A4 (Homo sapiens, UniProt P08684);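 also: CYP3A4 tested as one member of a cytochrome P450 panel screen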
Chain of Cytochrome P450 3A4 (P08684 whole entry): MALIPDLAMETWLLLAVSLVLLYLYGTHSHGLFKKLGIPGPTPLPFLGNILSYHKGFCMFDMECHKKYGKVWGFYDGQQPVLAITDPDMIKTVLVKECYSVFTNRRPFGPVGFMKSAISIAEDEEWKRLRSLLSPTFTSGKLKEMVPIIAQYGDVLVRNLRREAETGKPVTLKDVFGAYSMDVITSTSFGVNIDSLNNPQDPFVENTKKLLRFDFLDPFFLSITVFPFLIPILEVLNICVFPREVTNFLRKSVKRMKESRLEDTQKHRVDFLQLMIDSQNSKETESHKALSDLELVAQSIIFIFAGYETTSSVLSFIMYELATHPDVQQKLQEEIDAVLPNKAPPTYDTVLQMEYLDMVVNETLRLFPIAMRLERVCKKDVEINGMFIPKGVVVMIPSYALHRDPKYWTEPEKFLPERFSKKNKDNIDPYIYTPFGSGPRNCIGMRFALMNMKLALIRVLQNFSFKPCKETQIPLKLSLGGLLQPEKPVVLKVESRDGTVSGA

[4] = target: Ras and Rab interactor 1/Tyrosine-protein kinase ABL1 (Homo sapiens, UniProt P00519+Q13671); assay type: functional;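 also: biochemical TR-FRET dose-response test measuring inhibition of binding between Rin1 and Abl proteins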
[5] = target: T2, Hepatocyte nuclear factor 4-alpha (Homo sapiens, UniProt P41235); assay type: functional, cell-based;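 also: biochemical luminescence-based dose-response counterscreen measuring inhibition of HNF4 dimerization, run alongside a screen for blockers of ABHD5–perilipin-5 interaction; split luciferase complementation of HNF4 fusion proteins in cell lysate measuring dimerization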
T2 sequence (P41235 whole entry): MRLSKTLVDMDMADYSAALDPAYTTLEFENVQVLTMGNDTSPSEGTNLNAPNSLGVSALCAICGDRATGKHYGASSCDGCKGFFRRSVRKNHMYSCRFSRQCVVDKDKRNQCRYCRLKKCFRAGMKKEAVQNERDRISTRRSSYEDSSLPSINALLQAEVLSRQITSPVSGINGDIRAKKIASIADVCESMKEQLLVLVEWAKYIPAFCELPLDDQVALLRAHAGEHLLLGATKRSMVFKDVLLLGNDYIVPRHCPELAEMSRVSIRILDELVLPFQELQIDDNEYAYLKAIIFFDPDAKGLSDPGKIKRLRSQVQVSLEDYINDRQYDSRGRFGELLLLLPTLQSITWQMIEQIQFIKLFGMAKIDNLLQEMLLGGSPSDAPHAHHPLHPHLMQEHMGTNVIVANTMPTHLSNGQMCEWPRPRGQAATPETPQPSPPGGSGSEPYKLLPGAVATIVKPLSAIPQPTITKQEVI

HEK293 [6] = assay: inhibition of NOD1-driven NF-kB reporter – cell-based, luminescence, uHTS, primary screen (AID 1578); assay type: functional; details: Homo sapiens
HEK293 [7] = assay: cells; assay type: functional, cell-based; details: Homo sapiens
HEK293 [8] = assay: cells; assay type: functional, cell-based; details: Homo sapiens; remark: listed apart in the source
[9] = target: Nucleotide-binding oligomerization domain-containing protein 2 (Homo sapiens, UniProt Q9HC29); assay: inhibition of NOD2-driven NF-kB reporter – cell-based, luminescence, uHTS, HEK293 (AID 1566); assay type: functional
HEK293 [10] = assay: NOD2 signaling inhibitors in MDP-stimulated cells, cell-based, uHTS, luminescence (AID 2001); assay type: functional; details: Homo sapiens
[11] = Trypanosoma cruzi growth suppression in host cells – NIH3T3 host cells, beta-gal luminescence, confirmation (AID 2044); assay type: functional, cell-based;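 also: intracellular parasites grown in NIH/3T3 mouse fibroblasts as host cells; luminescent beta-galactosidase reporter signal from transgenic T. cruzi replicating inside host cells; inhibitors lower the luminescence signal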
HEK293 [12] = assay: cells; assay type: functional, cell-based; details: Homo sapiens; remark: listed apart in the source
[13] = NIH3T3 cell viability loss – ATP luminescence, mouse fibroblasts, counter-screen, dose response (AID 2010); assay type: functional, cell-based;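 also: cells exposed to compound for about 90 hours before reading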
Fatty acid synthase [14] = target: T3, Fatty acid synthase (Homo sapiens, UniProt P49327); assay: inhibition of human FAS-TE enzyme activity – biochemical, endpoint fluorescence intensity, uHTS hits, dose response (AID 624327); assay type: functional;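 also: fluorescence from hydrolysis of an O-methyl fluorescein acyl ester substrate by the enzyme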
T3 sequence (P49327 whole entry, the tested form may be a part): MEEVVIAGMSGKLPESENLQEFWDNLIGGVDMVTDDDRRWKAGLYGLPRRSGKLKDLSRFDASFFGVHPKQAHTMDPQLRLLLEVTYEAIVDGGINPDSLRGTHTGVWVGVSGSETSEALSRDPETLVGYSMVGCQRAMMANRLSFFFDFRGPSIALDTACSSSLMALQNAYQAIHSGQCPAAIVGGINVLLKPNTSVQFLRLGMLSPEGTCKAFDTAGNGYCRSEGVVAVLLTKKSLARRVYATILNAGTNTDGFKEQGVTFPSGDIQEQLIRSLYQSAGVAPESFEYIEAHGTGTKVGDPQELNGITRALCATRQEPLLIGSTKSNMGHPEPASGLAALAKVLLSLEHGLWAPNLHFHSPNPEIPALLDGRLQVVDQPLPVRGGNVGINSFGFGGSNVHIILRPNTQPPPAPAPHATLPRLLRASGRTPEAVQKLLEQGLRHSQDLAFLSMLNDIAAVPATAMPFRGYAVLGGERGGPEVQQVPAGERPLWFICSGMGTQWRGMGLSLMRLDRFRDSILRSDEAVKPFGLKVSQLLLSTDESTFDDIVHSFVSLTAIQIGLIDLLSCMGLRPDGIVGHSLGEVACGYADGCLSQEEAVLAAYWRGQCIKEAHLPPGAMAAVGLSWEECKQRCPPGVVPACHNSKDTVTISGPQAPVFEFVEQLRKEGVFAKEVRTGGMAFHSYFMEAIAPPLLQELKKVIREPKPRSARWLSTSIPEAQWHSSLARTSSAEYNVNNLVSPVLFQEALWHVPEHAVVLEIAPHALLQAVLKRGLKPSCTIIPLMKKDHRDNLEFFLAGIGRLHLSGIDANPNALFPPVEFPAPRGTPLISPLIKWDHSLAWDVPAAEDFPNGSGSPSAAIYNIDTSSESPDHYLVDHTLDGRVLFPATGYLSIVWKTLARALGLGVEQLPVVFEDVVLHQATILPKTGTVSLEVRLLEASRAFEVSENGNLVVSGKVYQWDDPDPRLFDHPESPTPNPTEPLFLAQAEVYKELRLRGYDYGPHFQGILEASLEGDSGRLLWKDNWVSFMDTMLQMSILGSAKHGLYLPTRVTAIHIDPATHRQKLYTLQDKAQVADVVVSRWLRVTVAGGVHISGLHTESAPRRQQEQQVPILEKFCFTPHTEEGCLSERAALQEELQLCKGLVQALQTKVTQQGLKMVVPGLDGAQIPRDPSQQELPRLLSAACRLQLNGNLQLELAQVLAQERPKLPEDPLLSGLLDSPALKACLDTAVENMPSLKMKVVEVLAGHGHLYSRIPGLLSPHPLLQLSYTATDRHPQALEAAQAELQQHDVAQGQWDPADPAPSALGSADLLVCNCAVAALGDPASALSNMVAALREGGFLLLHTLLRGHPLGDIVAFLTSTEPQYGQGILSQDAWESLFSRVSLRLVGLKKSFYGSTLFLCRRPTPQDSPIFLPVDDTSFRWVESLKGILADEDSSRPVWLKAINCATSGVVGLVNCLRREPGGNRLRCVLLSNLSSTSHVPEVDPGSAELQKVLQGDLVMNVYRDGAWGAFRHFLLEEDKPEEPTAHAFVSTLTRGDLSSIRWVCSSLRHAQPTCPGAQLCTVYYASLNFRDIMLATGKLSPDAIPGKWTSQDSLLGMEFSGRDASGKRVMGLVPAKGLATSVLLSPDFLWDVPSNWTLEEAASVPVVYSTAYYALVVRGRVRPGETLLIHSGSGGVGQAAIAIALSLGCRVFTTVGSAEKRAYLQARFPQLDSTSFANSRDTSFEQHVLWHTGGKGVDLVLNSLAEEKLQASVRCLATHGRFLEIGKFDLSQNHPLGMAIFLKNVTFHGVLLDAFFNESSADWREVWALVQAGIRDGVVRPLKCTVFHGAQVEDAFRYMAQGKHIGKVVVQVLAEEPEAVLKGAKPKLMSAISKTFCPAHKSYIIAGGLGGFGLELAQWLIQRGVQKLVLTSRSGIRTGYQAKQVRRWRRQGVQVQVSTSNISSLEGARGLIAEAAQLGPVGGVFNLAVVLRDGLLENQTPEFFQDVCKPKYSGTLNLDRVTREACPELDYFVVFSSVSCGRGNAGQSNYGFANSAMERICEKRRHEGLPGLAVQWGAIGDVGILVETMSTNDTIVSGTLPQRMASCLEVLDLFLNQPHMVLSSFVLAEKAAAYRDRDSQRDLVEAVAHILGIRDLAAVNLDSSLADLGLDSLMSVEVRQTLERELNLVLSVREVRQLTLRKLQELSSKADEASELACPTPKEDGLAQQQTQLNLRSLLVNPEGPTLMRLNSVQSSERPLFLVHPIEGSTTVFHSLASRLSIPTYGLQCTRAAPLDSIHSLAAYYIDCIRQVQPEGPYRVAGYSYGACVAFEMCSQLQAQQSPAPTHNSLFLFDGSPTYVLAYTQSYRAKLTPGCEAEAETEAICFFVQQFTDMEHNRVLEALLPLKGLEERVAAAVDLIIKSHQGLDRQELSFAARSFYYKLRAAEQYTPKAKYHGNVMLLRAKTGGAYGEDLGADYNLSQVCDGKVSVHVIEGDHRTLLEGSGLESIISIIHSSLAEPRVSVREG

[15] = inhibition of ARNT PAS-B/TACC3 complex formation – biochemical, AlphaScreen, cherry-picked samples, confirmation (AID 651703); assay type: functional, Homo sapiens;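 also: His-tagged ARNT PAS-B domain paired with GST-TACC3 E629A dimer coactivator fragment; potency of inhibitors that break up the complex and lower AlphaScreen signal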
Fatty acid synthase [16] = target: T3, Fatty acid synthase; assay: inhibition of human FAS-TE enzyme activity – biochemical, kinetic fluorescence intensity, dose response (AID 624326); assay type: functional;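 also: rate of fluorescence rise from hydrolysis of a fluorogenic O-methyl fluorescein ester substrate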

Chain of Genome polyprotein (P29990 2492-3391 limits assumed): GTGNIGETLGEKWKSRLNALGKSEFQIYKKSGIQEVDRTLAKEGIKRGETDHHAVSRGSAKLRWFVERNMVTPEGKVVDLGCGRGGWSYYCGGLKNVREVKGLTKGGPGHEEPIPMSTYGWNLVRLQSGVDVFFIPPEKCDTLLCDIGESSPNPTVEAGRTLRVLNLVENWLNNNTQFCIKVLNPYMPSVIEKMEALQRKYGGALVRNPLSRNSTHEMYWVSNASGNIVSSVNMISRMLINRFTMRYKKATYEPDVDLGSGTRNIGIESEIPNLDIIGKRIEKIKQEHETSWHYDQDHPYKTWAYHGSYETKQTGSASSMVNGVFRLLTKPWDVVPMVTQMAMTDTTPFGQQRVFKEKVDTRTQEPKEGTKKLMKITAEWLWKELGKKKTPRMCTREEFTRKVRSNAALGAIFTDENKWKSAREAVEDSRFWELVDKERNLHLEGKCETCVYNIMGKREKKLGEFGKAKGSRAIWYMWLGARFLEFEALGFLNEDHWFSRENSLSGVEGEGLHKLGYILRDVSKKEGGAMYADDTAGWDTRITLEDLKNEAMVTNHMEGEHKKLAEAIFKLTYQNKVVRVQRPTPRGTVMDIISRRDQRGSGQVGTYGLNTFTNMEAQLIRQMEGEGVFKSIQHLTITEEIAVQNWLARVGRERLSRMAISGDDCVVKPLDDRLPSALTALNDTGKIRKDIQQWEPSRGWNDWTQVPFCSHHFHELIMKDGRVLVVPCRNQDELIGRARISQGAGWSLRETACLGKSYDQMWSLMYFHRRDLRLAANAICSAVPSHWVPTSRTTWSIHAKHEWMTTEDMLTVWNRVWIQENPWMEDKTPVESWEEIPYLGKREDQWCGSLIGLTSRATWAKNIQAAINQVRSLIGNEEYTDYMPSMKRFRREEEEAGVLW

AC50 [3]: 21.6 µM (active)
SMILES: CCOC(=O)c1cnc2c(CC)cccc2c1NCCCN1CCOCC1

IC50 [4]: 30.8 µM (inactive)
SMILES: CCOC(=O)CCCCCC(=O)Nc1ccc2c(c1)C(=O)N([C@H](C)CO)C[C@H](C)[C@@H](CN(C)C(=O)Nc1ccccc1)OCCCC[C@@H](C)O2

IC50 [5]: 6.11 µM (active)
SMILES: CCCCCNC(=O)C(C1CC1)n1c(=O)c(-c2ccco2)nc2ccccc21 (centres undefined)

IC50 (Fatty acid synthase [14]): 10.3 µM (active)
IC50 (Fatty acid synthase [16]): 6.76 µM (active)
SMILES: COc1ccc([N+](=O)[O-])cc1/C=N/NC(=O)CNC(=O)c1cccc(F)c1
AC50 [15]: 87.2 µM (active)

The remaining lines, values behind:

SMILES: COc1ccc(-c2cc(-c3ccc(Cl)cc3)c(C#N)c(SCC(=O)O)n2)cc1
IC50 (Genome polyprotein): 50 µM (active)

SMILES: N#Cc1cc(-c2ccccc2)nnc1Oc1ccccc1Cl
EC50 [1]: 0.173 µM (active)

SMILES: CCc1cc(-c2n[nH]c(C)c2-c2nc3ccccc3n2C)c(O)cc1O
IC50 [2]: > 80 µM (inactive)
AC50 (Paired box protein Pax-8): 40.6 µM (active)

SMILES: Cc1cc(C)n(-c2nc3c(c(=O)[nH]c(=O)n3C)n2CC(C)C)n1
AC50 (Cytochrome P450 2C19): inconclusive
AC50 (Cytochrome P450 2D6): inconclusive

SMILES: COC(=O)C/C=C\[C@@H](C)[C@@H](/C=N\OC[C@@H](O)[C@H]1O[C@H]2OC(C)(C)O[C@H]2[C@@H]1O)OC
AC50 (Cytochrome P450 3A4): 5.01 µM (inconclusive)
AC50 (Cytochrome P450 2D6): inconclusive

SMILES: Cc1ccc2nc(SCC(=O)N/N=C/c3ccco3)cc(C)c2c1
IC50 [2]: 41.8 µM (inactive)

SMILES: C/C(Cn1nnc([N+](=O)[O-])n1)=N\NC(=O)c1ccc(Cl)c(Cl)c1
EC50 (HEK293 [6]): > 20 µM (inactive)
IC50 (HEK293 [7]): > 20 µM (inactive)
IC50 (HEK293 [8]): 18.5 µM (active)
EC50 [9]: 4.92 µM (active)
IC50 (HEK293 [10]): > 20 µM (inactive)
EC50 [11]: 0.184 µM (active)
IC50 (HEK293 [12]): > 20 µM (inactive)
EC50 [13]: > 60 µM (not active)
IC50 [2]: > 80 µM (inactive)
